Experimental findings from US6534516B1, “Androgen receptor modulator compounds and methods” (Ligand Pharmaceuticals Incorporated, priority 1996, dated 2003) are described below.

For one assay, the target named is T1, human AR (Homo sapiens, UniProt P10275).
T1 construct: expressed in transfected cells; host or cells: CV-1 cells (African green monkey kidney fibroblasts)
T1 sequence (P10275 1-920): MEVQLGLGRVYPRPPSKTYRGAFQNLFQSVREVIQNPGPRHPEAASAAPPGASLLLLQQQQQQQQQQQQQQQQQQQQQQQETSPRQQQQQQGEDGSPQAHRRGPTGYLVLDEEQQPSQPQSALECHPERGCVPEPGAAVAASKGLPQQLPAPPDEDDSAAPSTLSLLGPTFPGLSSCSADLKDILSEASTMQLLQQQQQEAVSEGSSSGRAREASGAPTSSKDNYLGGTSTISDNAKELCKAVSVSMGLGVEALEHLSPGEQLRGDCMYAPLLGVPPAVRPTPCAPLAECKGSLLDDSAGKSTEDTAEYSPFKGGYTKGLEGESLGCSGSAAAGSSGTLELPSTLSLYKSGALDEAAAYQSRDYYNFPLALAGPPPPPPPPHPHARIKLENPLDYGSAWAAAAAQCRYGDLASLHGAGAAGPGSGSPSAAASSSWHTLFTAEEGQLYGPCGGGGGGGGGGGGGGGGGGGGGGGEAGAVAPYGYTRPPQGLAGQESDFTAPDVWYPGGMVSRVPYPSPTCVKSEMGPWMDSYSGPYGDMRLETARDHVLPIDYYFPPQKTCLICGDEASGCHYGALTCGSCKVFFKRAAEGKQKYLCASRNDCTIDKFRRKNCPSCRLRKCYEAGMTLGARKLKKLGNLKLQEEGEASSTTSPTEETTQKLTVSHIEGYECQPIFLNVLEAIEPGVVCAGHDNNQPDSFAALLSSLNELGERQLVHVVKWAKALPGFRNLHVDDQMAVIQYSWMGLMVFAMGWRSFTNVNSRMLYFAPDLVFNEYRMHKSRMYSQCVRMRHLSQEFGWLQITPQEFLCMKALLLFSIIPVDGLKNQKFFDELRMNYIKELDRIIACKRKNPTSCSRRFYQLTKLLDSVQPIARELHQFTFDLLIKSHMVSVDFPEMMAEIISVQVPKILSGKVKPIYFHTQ
The assay can be described thus: cell-based. Format: cell-based.

The target in the next assay is T2, PR (Homo sapiens, UniProt P06401).
T2 sequence (P06401 1-933): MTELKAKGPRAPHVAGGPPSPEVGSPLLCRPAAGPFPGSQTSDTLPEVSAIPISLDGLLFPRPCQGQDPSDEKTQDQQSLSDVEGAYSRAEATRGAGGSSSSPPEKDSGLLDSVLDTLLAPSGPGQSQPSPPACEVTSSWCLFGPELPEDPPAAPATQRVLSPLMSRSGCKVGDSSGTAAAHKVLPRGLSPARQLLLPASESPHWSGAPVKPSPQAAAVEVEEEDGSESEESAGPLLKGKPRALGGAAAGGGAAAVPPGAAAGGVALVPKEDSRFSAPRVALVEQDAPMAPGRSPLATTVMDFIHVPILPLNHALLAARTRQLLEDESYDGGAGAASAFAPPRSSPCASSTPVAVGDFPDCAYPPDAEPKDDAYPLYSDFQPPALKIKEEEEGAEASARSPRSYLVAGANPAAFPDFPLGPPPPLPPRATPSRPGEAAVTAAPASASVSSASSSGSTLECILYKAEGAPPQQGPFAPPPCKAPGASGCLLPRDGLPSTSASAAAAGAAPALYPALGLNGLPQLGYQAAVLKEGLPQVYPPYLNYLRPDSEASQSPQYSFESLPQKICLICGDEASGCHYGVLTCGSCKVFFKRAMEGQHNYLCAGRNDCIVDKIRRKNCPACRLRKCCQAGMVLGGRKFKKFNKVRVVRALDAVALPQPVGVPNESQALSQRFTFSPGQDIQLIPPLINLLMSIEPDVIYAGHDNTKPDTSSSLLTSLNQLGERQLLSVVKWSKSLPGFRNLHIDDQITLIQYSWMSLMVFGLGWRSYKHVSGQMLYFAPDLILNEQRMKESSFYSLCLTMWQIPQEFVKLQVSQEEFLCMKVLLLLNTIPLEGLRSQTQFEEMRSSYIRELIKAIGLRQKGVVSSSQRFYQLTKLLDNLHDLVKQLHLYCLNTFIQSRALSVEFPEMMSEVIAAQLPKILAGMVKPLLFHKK
Description: cell-based.

For `CC1(C)CCc2cc3c(C(F)(F)F)c(F)c(=O)[nH]c3cc2N1` [Compound 105, 7-Fluoro-1,2,3,4-tetrahydro-2,2-dimethyl-6-trifluoromethyl-8-pyridono[5,6-g]quinoline], at human AR, the “AR Agonist CV-1 Cells Efficacy” value amounted to 39 ± 6% and the response was half-maximal at 125 ± 28 nM (EC50). Also, the “AR Antagonist CV-1 Cells Efficacy” value on human AR (antagonist mode, DHT at its EC50, % of maximal inhibition, na = not active) is 39 ± 6%. Besides, the IC50 at human AR (read-out: AR Antagonist CV-1 Cells Potency) turned out to be 34 ± 14 nM. For the same compound, the “AR activity profile (in words)” value on human AR (summary of Tables 1 and 2) was “mixed AR agonists/antagonists”. Also, the IC50 at PR stood at 160 nM.

A word on the EC50: it is the midpoint of the concentration-response curve. A low value points to greater potency.
